Test results taken from patent publication US20050058611A1, “Preventing and/or combating collagen fiber degradation induced under conditions of natural exposure to sunlight” (L'OREAL, priority 2003, published 2005).

Assays:
[1] = test system: production of MMP-1 by normal human epidermal keratinocytes; assay: MMP-1 production by normal human epidermal keratinocytes cultured on plastic, ELISA; format: cell-based; details: TPA 20 ng/ml, positive control; cell culture supernatant 24 hours after treatment
Method: FIG. 5 illustrates the production of MMP-1 by normal human epidermal keratinocytes. The cells cultured on plastic are exposed to SSR or treated with TPA (20 ng/ml). The MMP-1 content is evaluated by ELISA 24 hours after treatment in the cell culture supernatant.
Human keratinocytes are isolated from normal human skin (breast surgery) and cultured on a nourishing layer of mitomycin-treated 3T3 mouse fibroblasts.
The MMP-1 content is measured by ELISA (Biotrak kit RPN 2610, Amersham Biotech, France) according to the supplier's instructions.
To determine whether the irradiation of SSR type could also modulate the production of MMP-1 by keratinocytes growing on plastic, the cells were exposed to an SSR radiation. The MMP-1 extracellular contents were quantified 24 hours after UV radiation.

[2] = test system: production of MMP-1 by normal human fibroblasts; assay: Keratinocyte conditioned medium transferred onto fibroblasts; MMP-1 production by ELISA; format: cell-based; details: for Production of MMP-1: sodium butyrate 3 mM, fibroblast culture supernatant 24 hours after transfer
Description: Normal human keratinocytes cultured as a monolayer on plastic were subjected to a UV-B radiation (10 mJ/cm^2). The experiment may also be performed in the presence of an SSR as defined in Example 1.
A Philips TL 20 W/12 tube equipped with a Kodacel filter to remove the wavelengths below 290 nm is used as UV-B source.
Just before irradiation, the culture medium of the sub-confluent cells (80-90% of confluence) is replaced with a PBS phosphate buffer to avoid the generation of phototoxic products by the medium. Under these conditions, no loss of viability of the cells is observed at the UV doses used.
After irradiation, the cells were placed in contact with an MEM culture medium free of serum and of growth factor, which are known to interfere with the detection or production of MMP-1, containing or not containing sodium butyrate NaBu (3 mM).
The conditioned medium of the keratinocytes (irradiated or not, in the presence or absence of sodium butyrate) was taken up 24 hours after irradiation and placed in contact with normal human fibroblasts.
The production of MMP-1 detected 24 hours later in the fibroblast culture supernatant was quantified by means of the “Biotrak MMP-1 human ELISA system” detection kit sold by Amersham, according to the supplier's indications.
The results are read using a LabSystems microplate reader equipped with a 450 nm filter.
The amount of MMP-1 is calculated relative to a calibration range prepared with a standard supplied with the kit, and is expressed in ng/ml.

| SMILES | MMP-1 production by keratinocytes [1] | Effect on the photoinduced stimulation of MMP-1 production ([2]; UV-B irradiated keratinocyte conditioned medium) | Production of MMP-1 ([2]; irradiated (UV-B 10 mJ/cm^2) keratinocyte conditioned medium) [ng/mL] | Inhibition of basal production of MMP-1 (factor) ([2]; non-irradiated condition, versus control conditioned medium) | Production of MMP-1 ([2]; non-irradiated keratinocyte conditioned medium) [ng/mL] |
| --- | --- | --- | --- | --- | --- |
| CCCCCCCCCCCCCC(=O)O[C@@H]1[C@@H](C)[C@@]2(O)[C@@H](C=C(CO)C[C@]3(O)C(=O)C(C)=C[C@@H]23)[C@H]2C(C)(C)[C@]12OC(C)=O [TPA] | leads to an accumulation of MMP-1 production |  |  |  |  |
| CCCC(=O)[O-].[Na+] [sodium butyrate] |  | capable of preventing this stimulatory effect on MMP-1 production | 16.97 ± 3.7 | 3 | 4.84 ± 0.36 |
